Reference: patent US10675267B2, “Methods for detection and eradication of myeloid leukemia stem cells” (priority 2015, dated 2020)
Entries after “also recorded” stand apart in the source; their conditions may differ.

Tested on: AML LSC (CD34+ cells from AML primary samples)
Experiment: SL/M2 stromal co-culture with colony formation (survival) and replating (self-renewal) assays, AML
Format: cell-based, human
Description: In hypothesis-driven experiments, the splicing modulatory compound 17S-FD-895 was tested to determine efficacy in altering splicing activity in cell lines, and to evaluate effects on AML LSC survival and self-renewal capacity in humanized bone marrow stromal co-cultures and in PRIMAGRAFT™ AML LSC models. Cell culture experiments were performed using 293T and sAML (MOLM-13) cell lines, and SL and M2 bone marrow stromal cell lines. Animal studies were performed using immunocompromised Rag2−/−γc−/−[20] or NOD/SCID-IL2RG mice (Jackson Laboratory, Bar Harbor, Me.). Primary AML and normal control samples were used in in vitro hematopoietic stem and progenitor assays after bone marrow stromal co-culture and treatment with splicing modulatory compounds (FD-895 or 17S-FD-895) or vehicle control (DMSO). Colony formation potential and self-renewal capacity were assessed by counting colony numbers (survival) after two weeks of growth in semi-solid (methylcellulose) media, and subsequent replating capacity (self-renewal) was assessed after transfer to fresh methylcellulose for an additional two weeks of culture. Three primary AML samples were utilized to establish PRIMAGRAFT™ models in immunocompromised mice, and mice engrafted with cells from two of these models (AML-37 and AML-08) were treated with 17S-FD-895 or vehicle (DMSO) to evaluate changes in AML LSC survival and self-renewal capacity in vivo. Data were collected by flow cytometry and qRT-PCR analysis of CD34-selected human LSC-enriched cells from engrafted mice.
Bone marrow SL/M2 monolayers were established from freshly inactivated (irradiated) cells and then human CD34^+ cells selected from AML primary samples (n=8) and normal controls (CD34^+ cells from cord blood, CB, n=6; or aged bone marrow, n=6) were added. Survival and self-renewal of the CD34+ cells were investigated by methylcellulose-based colony and replating assays. Two SF3B1-targeted splicing modulators, FD-895 or 17S-FD-895, were added at the initiation of co-culture at concentrations ranging from 0.1 to 10 μM.
Mouse bone marrow stromal cell lines (SL and M2 mycoplasma-free authenticated cells obtained from ATCC) expressing human interleukin-3 (IL-3), stem cell factor (SCF) and granulocyte-colony stimulating factor (G-CSF), which support erythroid and myeloid cell expansion and differentiation, were maintained under standard culture conditions, as previously described. Briefly, SL cells were grown in complete medium containing DMEM (Corning), 10% FBS, 1% Glutamax, and 1% penicillin-streptomycin (Life Technologies), while M2 cells were grown in complete medium containing RPMI, 10% FBS, 1% Glutamax, and 1% penicillin-streptomycin (all from Life Technologies). Every four passages, cells were selected by addition of G418 and hygromycin to the culture media for one passage (3-4 days), to maintain human cytokine expression. All cell lines were maintained in T-25 or T-75 culture flasks and were passaged at dilutions of 1:5-1:10 every 2-4 days. Low passage aliquots of cells were thawed every two months to ensure consistency of experiments.
As previously described (Goff et al., 2013), humanized bone marrow SL/M2 monolayers were inactivated (irradiated) and then human CD34^+ cells selected from AML primary samples and normal controls were added for two weeks of co-culture, followed by methylcellulose-based colony and replating assays. FD-895 or 17S-FD-895 were added at the initiation of co-culture, with DMSO as a vehicle control.
Mouse bone marrow stromal cell lines (SL and M2 mycoplasma-free authenticated cells obtained from ATCC) expressing human interleukin-3 (IL-3), stem cell factor (SCF) and granulocyte-colony stimulating factor (G-CSF), which support erythroid and myeloid cell expansion and differentiation (Hogge et al., 1996), were maintained under standard culture conditions, as previously described (Goff et al., 2013). […]

[1] = two weeks SL/M2 co-culture, 0.1-10 μM, versus DMSO

Structure (SMILES): CC[C@H](OC)[C@@H](C)[C@H]1O[C@@H]1[C@@H](O)[C@H](C)/C=C/C=C(\C)[C@H]1OC(=O)C[C@H](O)CC[C@@](C)(O)[C@@H](OC(C)=O)/C=C/[C@@H]1C (stereo in doubt) [Formula 17S-FD-895, 17S-FD-895]
- AML LSC survival compared with FD-895 (1 μM dose, p=0.020): significantly lower
- LSC survival and self-renewal, validation cohort (1 μM, separate patient samples, versus normal controls): Reduced AML LSC survival and self-renewal compared to normal controls
- AML LSC self-renewal compared with FD-895 (0.1 and 1 μM doses, p=0.001): significantly lower
- functional potency compared with FD-895 (LSC assays): greater functional potency than FD-895
- therapeutic index (AML LSC versus normal HSPC) (LSC assays, stromal co-culture): favorable therapeutic index
- AML LSC self-renewal (colony replating) [1]: dose-dependent reduction; also recorded: reduced AML LSC self-renewal
- AML LSC survival (colony formation) [1]: dose-dependent reduction; also recorded: reduced AML LSC survival
